Results on one molecule are retold here after paper PMC12022909, “A Multicomponent Reaction-Based Platform Opens New Avenues in Aryl Hydrocarbon Receptor Modulation” (ACS Central Science, 2025).

The structures appear in SMILES notation.

The target in this assay is T1, AhR-GFP (Homo sapiens, UniProt P35869).
T1 construct: host or cells: MCF7, lentiviral transduction
Nature of the assay: MCF7 AhR-GFP.IRES.mCherry reporter, flow cytometry quantification of AhR protein levels. The note with it: 5 μM, 5 h. The class given is cell-based. The procedure: Figure 6 Bifunctional AhR probes and AhR reporter in MCF7 cells. (a) Synthetic access to the conjugatable AhR ligand 5m. (b) Structure, yield, and EC50 value of the model amide 12a and MD simulation of AhR with 12a (last snapshot). (c) PROTAC-like compound 12b and dual probes 12c–d. Reaction conditions: (a) 5m (1 equiv), amine (1 equiv), HATU, DIPEA, DMF, rt, 24 h, Ar atm; (b) 5m (2 equiv), diamine (1 equiv), HATU, DIPEA, DMF, rt, 24 h, Ar atm. (d) General setup of the reporter system for quantifying AhR protein levels. (e) The population of MCF7 reporter cells (MCF7 AhR-GFP.IRES.mCherry) gated by flow cytometry and used for quantification of AhR. […] Values represent the ratio of the geometric mean of GFP and mCherry values in the gated population. (g) Change in protein levels relative to vehicle treatment (DMSO) in MCF7 cells treated with 12b at 10 μM for 5 h quantified by TMT labeling and LC/MS analysis versus p-Value. TEXT PRINTED IN THE PICTURE: (b) 12a: EC50 = 0.40 μM […]
To test the effect of these compounds on AhR abundance, we established a cellular reporter in the breast cancer cell line MCF7. AhR in this case is fused to GFP bearing an independently translated mCherry on the same transcript to allow correction for general transcriptional interference of treatments (Figure 6d,e). […]

T1 sequence (P35869 11-848): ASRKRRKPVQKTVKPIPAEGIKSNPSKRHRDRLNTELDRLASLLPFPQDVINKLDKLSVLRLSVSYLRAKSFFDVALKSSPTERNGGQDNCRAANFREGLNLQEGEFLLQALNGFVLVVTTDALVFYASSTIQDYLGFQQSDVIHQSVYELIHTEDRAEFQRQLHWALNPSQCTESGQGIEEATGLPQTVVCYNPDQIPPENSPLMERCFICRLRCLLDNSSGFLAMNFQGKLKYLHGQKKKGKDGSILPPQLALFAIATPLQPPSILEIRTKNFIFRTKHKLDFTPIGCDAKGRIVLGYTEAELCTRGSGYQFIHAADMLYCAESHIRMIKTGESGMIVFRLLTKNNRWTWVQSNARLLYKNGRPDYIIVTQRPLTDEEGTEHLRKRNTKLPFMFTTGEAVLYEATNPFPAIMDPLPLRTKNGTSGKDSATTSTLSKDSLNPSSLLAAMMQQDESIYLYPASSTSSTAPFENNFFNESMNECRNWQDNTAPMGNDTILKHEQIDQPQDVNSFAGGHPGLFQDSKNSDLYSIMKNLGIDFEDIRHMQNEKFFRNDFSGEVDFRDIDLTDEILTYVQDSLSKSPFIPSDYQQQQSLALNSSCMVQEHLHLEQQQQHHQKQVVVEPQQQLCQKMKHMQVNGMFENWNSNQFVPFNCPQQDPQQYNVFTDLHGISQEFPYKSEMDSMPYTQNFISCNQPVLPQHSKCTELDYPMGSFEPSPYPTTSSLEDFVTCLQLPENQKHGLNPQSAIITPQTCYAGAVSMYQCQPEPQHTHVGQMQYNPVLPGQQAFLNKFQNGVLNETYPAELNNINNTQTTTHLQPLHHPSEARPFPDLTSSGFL
T1 sequence (P08238 whole entry partner): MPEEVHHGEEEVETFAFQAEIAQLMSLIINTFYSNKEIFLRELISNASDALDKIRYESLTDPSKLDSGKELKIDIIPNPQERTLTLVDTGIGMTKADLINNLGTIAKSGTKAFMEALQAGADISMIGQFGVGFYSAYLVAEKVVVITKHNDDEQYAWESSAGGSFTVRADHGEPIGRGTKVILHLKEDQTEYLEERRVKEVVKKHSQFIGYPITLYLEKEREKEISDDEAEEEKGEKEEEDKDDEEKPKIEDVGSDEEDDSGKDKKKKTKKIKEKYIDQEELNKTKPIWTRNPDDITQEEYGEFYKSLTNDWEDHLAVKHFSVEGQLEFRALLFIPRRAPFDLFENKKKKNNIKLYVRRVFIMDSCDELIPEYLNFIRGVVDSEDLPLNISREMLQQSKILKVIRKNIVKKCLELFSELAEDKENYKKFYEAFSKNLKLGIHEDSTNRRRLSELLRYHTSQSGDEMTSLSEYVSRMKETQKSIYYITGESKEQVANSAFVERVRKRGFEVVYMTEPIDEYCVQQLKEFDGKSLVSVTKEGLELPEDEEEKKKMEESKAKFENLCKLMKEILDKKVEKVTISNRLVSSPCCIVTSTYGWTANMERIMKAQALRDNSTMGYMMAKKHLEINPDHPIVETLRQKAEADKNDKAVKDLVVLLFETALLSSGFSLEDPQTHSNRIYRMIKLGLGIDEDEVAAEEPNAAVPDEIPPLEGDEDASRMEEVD
T1 sequence (O00170 whole entry partner): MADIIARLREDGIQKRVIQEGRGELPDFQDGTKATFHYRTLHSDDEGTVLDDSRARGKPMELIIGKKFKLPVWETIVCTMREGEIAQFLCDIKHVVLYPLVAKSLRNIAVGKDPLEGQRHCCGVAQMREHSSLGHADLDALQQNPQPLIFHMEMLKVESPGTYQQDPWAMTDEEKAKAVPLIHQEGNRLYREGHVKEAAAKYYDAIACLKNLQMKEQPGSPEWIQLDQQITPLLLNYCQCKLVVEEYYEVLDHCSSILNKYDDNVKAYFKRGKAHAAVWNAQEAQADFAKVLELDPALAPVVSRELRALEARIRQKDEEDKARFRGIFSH

Turning to `Cc1[nH]c2ccccc2c1-c1c2[nH]c3ccccc3c2cc2[nH]c3ccccc3c12` [5e], the “AhR degradation in reporter system” value is “pronounced AhR degradation”.
